In patent publication US20220313708A1, “COMBINATION PRODUCT CONTAINING LIMONOID COMPOUND AND SGLT-2 INHIBITOR” (ZHEJIANG YANGSHENGTANG INSTITUTE OF NATURAL MEDICATION CO., …, priority 2019, published 2022):

Key:
Format in all cases: in vivo
[1] = tested on: mouse pancreatic islet β-cell injury model (STZ); test: Blood glucose in STZ mouse pancreatic islet β-cell injury model (Example 1, canagliflozin); details: STZ ICR mice; single agent 0.02 g/kg per day by gavage, two weeks; 1 h after last administration; mean ± SD
Excerpt: (§1) In this example, a mouse pancreatic islet β-cell injury model was established by modeling ICR mice with streptozotocin (STZ) (Li Nan et al., Protective effect of pine pollen on kidney damage in diabetic nephropathy mice, Science and Technology Review, 2014, 32 (4/5): 95-99), and used to complete the evaluation of hypoglycemic effect in animals (this model could simulate pancreatic islet β-cell damage state of type I and type II diabetics). The limonoid compound was selected from the group consisting of limonin, isolimonic acid, limonin glycoside, and isolimonic acid glycoside, and canagliflozin single administration group, limonin single administration group, isolimonic acid single administration group, limonin glycoside singe administration group, isolimonic acid glycoside singe administration group, and respective combination thereof with canagliflozin administration groups were set.
(§2) Conditions of experimental feeding: ICR mice (20±2 g), aged 6 weeks, purchased from Zhejiang Academy of Medical Sciences, and subjected to experimental feeding after 7 days of preliminary feeding. It should be noted that the conditions for raising the mice were as follows: the temperature was 23±1° C., the humidity was 55±10%, the lights were turned on between 7 am and 7 pm (the lights were turned off at other time), and the mice were allowed to freely take in water and feed. […]

[2] = tested on: mouse type II diabetes model (db/db mice); test: Blood glucose in db/db mouse type II diabetes model (Example 2, dapagliflozin); details: single agent 0.04 g/kg per day by gavage, two weeks, 1 h after last administration, mean ± SD
Excerpt: (§3) In the present example, db/db mice (line name BKS.Cg-Dock7^m+/+Lepr^db/Nju) were used to perform hypoglycemic efficacy evaluation test of animals (blood glucose level and leptin). The limonoid compound was selected from obacunone, isoobacunoic acid and obacunone glycoside, and dapagliflozin single administration group, obacunone single administration group, isoobacunoic acid single administration group, obacunone glycoside single administered group, and respective combination thereof with dapagliflozin administration groups were set. Conditions for experimental feeding: as type II diabetes model mice, 6-week-old SPF-grade db/db mice were purchased from the Nanjing Model Biology Institute, and subjected to experimental feeding after 7 days of preliminary feeding. It should be noted that the conditions for raising the mice were as follows: the temperature was 23±1° C., the humidity was 55±10%, the lights were turned on between 7 am and 7 pm (the lights were turned off at other time), and the mice were allowed to freely take in water and feed. […] The data were expressed as mean and standard deviation. The data before and after were analyzed by t-test, and P<0.05 was considered statistically significant.

[3] = tested on: mouse type II diabetes model (db/db mice); test: Serum leptin by ELISA in db/db mouse type II diabetes model (Example 2); details: single agent 0.04 g/kg per day by gavage, two weeks, mean ± SD
Excerpt: as §3

[4] = tested on: mouse pancreatic islet β-cell injury model (STZ); test: Blood glucose in STZ mouse pancreatic islet β-cell injury model (Example 3, empagliflozin); details: STZ ICR mice; single agent 0.1 g/kg per day by gavage, two weeks; 1 h after last administration; mean ± SD
Excerpt: as §1, with “ichangin, ichangensin, and ichangin” for “limonin, isolimonic acid, limonin”, “empagliflozin” for “isolimonic acid glycoside, and canagliflozin”, “ichangin” for “limonin”, “ichangensi” for “isolimonic acid”, “ichangin” for “limonin glycoside singe administration group, isolimonic acid”, “empagliflozin” for “canagliflozin”
as §2

[5] = tested on: mouse type II diabetes model (db/db mice); test: Blood glucose in db/db mouse type II diabetes model (Example 4, ipragliflozin); details: single agent 0.2 g/kg per day by gavage, two weeks, 1 h after last administration, mean ± SD
Excerpt: (§4) In the present embodiment, the limonoid compound was selected nomilin, deacetylnomilin, nomilin acid, deacetylnomilin acid glycoside, and ipragliflozin single administration group, nomilin single administration group, deacetylnomilin single administration group, nomilin acid single administered group, deacetylnomilin acid glycoside single administration group, and respective combination thereof with ipragliflozin administration groups were set.
(§5) Conditions for experimental feeding: as type II diabetes model mice, 6-week-old SPF-grade db/db mice were purchased from the Nanjing Model Biology Institute, and subjected to experimental feeding after 7 days of preliminary feeding. It should be noted that the conditions for raising the mice were as follows: the temperature was 23±1° C., the humidity was 55±10%, the lights were turned on between 7 am and 7 pm (the lights were turned off at other time), and the mice were allowed to freely take in water and feed. The experimental feed was mouse growth-stable feed (GB M2118), and the daily feeding and management of the animals were under the responsibility of the animal security department, which provided the animals with sufficient diet and fresh drinking water daily.
(§6) Experimental grouping: male db/db mice (20±2 g) were selected, 18 male mice in each group were tested, and drinking bottles were sterilized weekly. […]

[6] = tested on: mouse type II diabetes model (db/db mice); test: Serum insulin by ELISA in db/db mouse type II diabetes model (Example 4); details: single agent 0.2 g/kg per day by gavage, two weeks, mean ± SD
Excerpt: as §4, §5, §6

With Cc1ccc([C@@H]2O[C@H](CO)[C@@H](O)[C@H](O)[C@H]2O)cc1Cc1ccc(-c2ccc(F)cc2)s1 [Canagliflozin, canagliflozin] the Blood glucose value [1] was 19.1 ± 4.1 mmol/L.

Compound CCOc1ccc(Cc2cc([C@@H]3O[C@H](CO)[C@@H](O)[C@H](O)[C@H]3O)ccc2Cl)cc1 [Dapagliflozin, dapagliflozin] has a Blood glucose value [2] of 12.0 ± 2.9 mmol/L and a Leptin [3] of 25.34 ± 5.26 pg/mL.

For OC[C@H]1O[C@@H](c2ccc(Cl)c(Cc3ccc(O[C@H]4CCOC4)cc3)c2)[C@H](O)[C@@H](O)[C@@H]1O [Empagliflozin, empagliflozin], the Blood glucose value [4] was 13.9 ± 2.0 mmol/L.

OC[C@H]1O[C@@H](c2ccc(F)c(Cc3cc4ccccc4s3)c2)[C@H](O)[C@@H](O)[C@@H]1O [Ipragliflozin, ipragliflozin] was tested, and the Blood glucose value [5] was 10.3 ± 2.3 mmol/L and the Insulin [6] was 7.61 ± 1.03 pg/mL.
